Laboratory results from US20260008768A1, “UREA DERIVATIVES FOR INHIBITING NLRP3 AND USES THEREOF” (VENTUS THERAPEUTICS U.S., INC., priority 2023, published 2026).
pIC50: −log10 of the molar value.

Biological target: human NLRP3 (Homo sapiens, UniProt Q96P20)
Test: Scintillation Proximity (SPA) NLRP3 Assay, displacement of 3H-MCC950
Assay type: binding
Conditions: displacement of 3H-MCC950 from human NLRP3
Procedure: Improved NLRP3 binding correlates with increased affinity for NLRP3 protein and, by extension, increased ability to interfere with its function.
SPA experiments were conducted in a total volume of 20 μL assay buffer containing 20 mM HEPES pH 7.5, 150 mM NaCl, 5 mM MgCl2, 0.01% (v/v) Tween-20, 0.01% (w/v) bovine serum albumin (BSA) and 100 μM of adenosine diphosphate (ADP). A human NLRP3 protein (350 nM) (see, e.g., Sharif et al., Nature (2019) 570:338-343; Hochheiser et al., Nature (2022) 604:184-189; Adreeva et al., Cell (2021) 184:6299-6312; Wang et al., J Exp. Med. (2021) 219:e20211147) was incubated with various concentration of compounds in 5% dimethyl sulfoxide (DMSO) final for 15 minutes at room temperature in a white half-area 96 well OptiPlate (PerkinElmer #6002290) before adding 125 nM final of 3H-MCC950. After the addition of radiolabeled MCC950, the plate was incubated for 60 minutes at room temperature before adding 0.25 mg/ml of copper-coated polyvinyltoluene SPA beads (PerkinElmer #RPNQ0095). The plate was then transferred to a microplate counter (PerkinElmer 2450 Microbeta) to collect binding data. Binding data was analyzed 6 hrs post-PVT bead addition to allow sufficient time to reach equilibrium. Specific binding was calculated from averaged duplicates by subtracting signal from wells without NLRP3 protein.
SPA NLRP3 IC50 assay results are provided in Table B. “A” activity=<1 uM; “B” activity=1-10 uM; “C” activity=>10-50 uM; “D” activity=>50 uM-100 uM; and “E” activity=>100 uM.

Chain of human NLRP3 (Q96P20 whole entry): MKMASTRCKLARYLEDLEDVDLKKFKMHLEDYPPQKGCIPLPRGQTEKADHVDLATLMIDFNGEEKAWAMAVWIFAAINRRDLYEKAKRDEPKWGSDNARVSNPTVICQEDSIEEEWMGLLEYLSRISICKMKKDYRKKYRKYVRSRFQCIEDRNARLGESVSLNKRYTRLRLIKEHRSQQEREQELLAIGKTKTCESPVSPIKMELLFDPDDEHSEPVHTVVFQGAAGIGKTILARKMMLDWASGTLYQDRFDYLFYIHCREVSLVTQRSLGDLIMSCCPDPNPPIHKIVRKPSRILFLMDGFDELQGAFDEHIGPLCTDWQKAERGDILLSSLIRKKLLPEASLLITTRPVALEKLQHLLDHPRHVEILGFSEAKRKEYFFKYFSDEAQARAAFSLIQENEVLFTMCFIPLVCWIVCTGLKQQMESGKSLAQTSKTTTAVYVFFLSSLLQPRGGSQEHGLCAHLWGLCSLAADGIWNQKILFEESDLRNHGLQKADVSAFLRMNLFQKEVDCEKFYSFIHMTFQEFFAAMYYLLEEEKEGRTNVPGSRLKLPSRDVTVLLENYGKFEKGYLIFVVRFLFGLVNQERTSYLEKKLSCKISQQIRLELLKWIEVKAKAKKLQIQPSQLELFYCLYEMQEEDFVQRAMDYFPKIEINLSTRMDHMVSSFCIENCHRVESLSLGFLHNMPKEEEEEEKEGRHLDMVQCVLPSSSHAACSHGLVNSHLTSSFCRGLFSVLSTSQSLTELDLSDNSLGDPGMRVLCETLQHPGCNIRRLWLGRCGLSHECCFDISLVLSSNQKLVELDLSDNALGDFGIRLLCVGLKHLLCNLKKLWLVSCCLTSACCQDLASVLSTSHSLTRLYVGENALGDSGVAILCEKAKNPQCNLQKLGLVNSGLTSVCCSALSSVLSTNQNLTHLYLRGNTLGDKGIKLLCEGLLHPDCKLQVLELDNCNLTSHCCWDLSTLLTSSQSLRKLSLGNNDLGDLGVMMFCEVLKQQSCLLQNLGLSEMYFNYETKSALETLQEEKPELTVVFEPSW

pIC50 (Table B, activity class) | pIC50 (Table C) | SMILES
5.00 to 6.00 |  | C[C@@H]1CCN(c2nnn[nH]2)C[C@@H](NC(=O)N(C)c2ccc(C(F)(F)F)cc2F)C1 (single isomer, unassigned) [13B*]
< 4.00 |  | C[C@H]1CCN(c2nnn[nH]2)C[C@@H](NC(=O)N(C)c2ccc(OC(F)F)cc2F)C1 (single isomer, unassigned) [17D*]
4.00 to 4.30 |  | C[C@H]1CCN(c2nnn[nH]2)C[C@H](NC(=O)N(C)c2ccc(Cl)cn2)C1 (single isomer, unassigned) [28C*]
5.00 to 6.00 |  | C[C@@H]1CCN(c2nnn[nH]2)C[C@H](NC(=O)N(C)c2ccc(Cl)cn2)C1 (single isomer, unassigned) [28A*]
< 4.00 |  | C[C@H]1CCN(c2nnn[nH]2)C[C@H](NC(=O)N(C)c2c(F)cc(OC(F)F)cc2F)C1 (single isomer, unassigned) [19C*]
< 4.00 |  | C[C@H]1CCN(c2nnn[nH]2)C[C@H](NC(=O)N(C)c2ccc(C3CC3)cc2)C1 (single isomer, unassigned) [8C*]
5.00 to 6.00 |  | C[C@H]1CCN(c2nnn[nH]2)C[C@@H](NC(=O)N(C)c2c(F)cc(OC(F)F)cc2F)C1 (single isomer, unassigned) [19D*]
5.00 to 6.00 |  | C[C@@H]1CCN(c2nnn[nH]2)C[C@@H](NC(=O)N(C)c2ccc(C3CC3)c(F)c2)C1 (single isomer, unassigned) [23B*]
4.00 to 4.30 |  | C[C@H]1CCN(c2nnn[nH]2)C[C@H](NC(=O)N(C)c2ccc(OC(F)F)cc2)C1 (single isomer, unassigned) [11C*]
5.00 to 6.00 |  | C[C@@H]1CCN(c2nnn[nH]2)C[C@@H](NC(=O)N(C)c2ccc(Cl)nc2)C1 (single isomer, unassigned) [29B*]
4.30 to 5.00 |  | C[C@H]1CCN(c2nnn[nH]2)C[C@@H](NC(=O)N(C)c2ccc(OC(F)(F)F)c(F)c2F)C1 (single isomer, unassigned) [26D*]
< 4.00 |  | C[C@H]1CCN(c2nnn[nH]2)C[C@H](NC(=O)N(C)c2ccc(OC(F)F)c(F)c2)C1 (single isomer, unassigned) [15C*]
< 4.00 |  | C[C@H]1CCN(c2nnn[nH]2)C[C@H](NC(=O)N(C)c2ncc(C(F)(F)F)cn2)C1 (single isomer, unassigned) [30C*]
4.00 to 4.30 |  | C[C@@H]1CCN(c2nnn[nH]2)C[C@@H](NC(=O)N(C)c2ccc(C(F)(F)F)nn2)C1 (single isomer, unassigned) [33B*]
5.00 to 6.00 | 5.85 | C[C@@H]1CCN(c2nnn[nH]2)C[C@H](NC(=O)Nc2ccc(Cl)cc2F)C1 (single isomer, unassigned) [27A*]
4.30 to 5.00 |  | C[C@H]1CCN(c2nnn[nH]2)C[C@@H](NC(=O)N(C)c2ccc(Cl)cn2)C1 (single isomer, unassigned) [28D*]
5.00 to 6.00 |  | C[C@@H]1CCN(c2nnn[nH]2)C[C@@H](NC(=O)N(C)c2ccc(C(F)F)cc2F)C1 (single isomer, unassigned) [18B*]
< 4.00 |  | C[C@H]1C[C@@H](NC(=O)N(C)c2ccc3ccnn3c2)CN(c2nnn[nH]2)C1 [Compound 36A, 1-methyl-3-((3R,5S)-5-methyl-1-(1H-tetrazol-5-yl)piperidin-3-yl)-1-(pyrazolo[1,5-a]pyridin-6-yl)urea]
4.30 to 5.00 |  | C[C@@H]1CCN(c2nnn[nH]2)C[C@H](NC(=O)N(C)c2cnc(C(F)(F)F)nc2)C1 (single isomer, unassigned) [31A*]
< 4.00 |  | C[C@@H]1CCN(c2nnn[nH]2)C[C@H](NC(=O)N(C)c2ncc(C(F)(F)F)cn2)C1 (single isomer, unassigned) [30A*]
4.30 to 5.00 |  | CCN(C(=O)N[C@@H]1C[C@@H](C)CCN(c2nnn[nH]2)C1)c1ccc(OC(F)(F)F)cc1 (single isomer, unassigned) [43C*]
< 4.00 |  | C[C@H]1CCN(c2nnn[nH]2)C[C@@H](NC(=O)N(C)c2ncc(C(F)(F)F)cn2)C1 (single isomer, unassigned) [30D*]
4.00 to 4.30 |  | C[C@H]1CCN(c2nnn[nH]2)C[C@H](NC(=O)N(C)c2ccc(Cl)cc2Cl)C1 (single isomer, unassigned) [7C*]
< 4.00 |  | C[C@@H]1CCN(c2nnn[nH]2)C[C@@H](NC(=O)N(C)c2ncc(C(F)(F)F)cn2)C1 (single isomer, unassigned) [30B*]

SMILES | pIC50 (Table B, activity class) | pIC50 (Table C)
C[C@H]1C[C@@H](NC(=O)N(C)c2ccc(C3CC3)c(F)c2)[C@@H]2CC[C@H]1N2c1nnn[nH]1 (single isomer, unassigned) [54C*] | < 4.00 | 
C[C@@H]1C[C@H](NC(=O)N(C)c2ccc(C(F)F)c(F)c2)[C@H]2CC[C@@H]1N2c1nnn[nH]1 (single isomer, unassigned) [53B*] | < 4.00 | 
C[C@@H]1C[C@H](NC(=O)N(C)c2ccc(C(F)(F)F)c(F)c2)[C@H]2CC[C@@H]1N2c1nnn[nH]1 (single isomer, unassigned) [49B*] | < 4.00 | 
C[C@@H]1C[C@H](NC(=O)N(C)c2ccc(C3CC3)cc2)[C@H]2CC[C@@H]1N2c1nnn[nH]1 (single isomer, unassigned) [46B*] | 4.00 to 4.30 | 
C[C@H]1C[C@H](NC(=O)N(C)c2ccc(C(F)(F)F)cc2F)[C@@H]2CC[C@H]1N2c1nnn[nH]1 (single isomer, unassigned) [48D*] | 4.30 to 5.00 | 
C[C@@H]1C[C@H](NC(=O)N(C)c2ccc(OC(F)(F)F)cc2F)[C@H]2CC[C@@H]1N2c1nnn[nH]1 (single isomer, unassigned) [56B*] | < 4.00 | 
C[C@H]1C[C@@H](NC(=O)N(C)c2c(F)cc(OC(F)(F)F)cc2F)[C@@H]2CC[C@H]1N2c1nnn[nH]1 (single isomer, unassigned) [62C*] | 4.00 to 4.30 | 
C[C@H]1C[C@@H](NC(=O)N(C)c2ccc(C(F)(F)F)cc2F)[C@@H]2CC[C@H]1N2c1nnn[nH]1 (single isomer, unassigned) [48C*] | 4.00 to 4.30 | 
C[C@H]1C[C@H](NC(=O)N(C)c2ccc(OC(F)F)c(F)c2F)[C@@H]2CC[C@H]1N2c1nnn[nH]1 (single isomer, unassigned) [58D*] | 4.30 to 5.00 | 
C[C@H]1C[C@H](NC(=O)N(C)c2c(F)cc(OC(F)(F)F)cc2F)[C@@H]2CC[C@H]1N2c1nnn[nH]1 (single isomer, unassigned) [62D*] | 4.00 to 4.30 | 
C[C@@H]1C[C@H](NC(=O)N(C)c2ccc(OC(F)F)c(OC(F)F)c2)[C@H]2CC[C@@H]1N2c1nnn[nH]1 (single isomer, unassigned) [64B*] | < 4.00 | 
C[C@H]1C[C@@H](NC(=O)N(C)c2ccc(OC(F)(F)F)cc2)[C@@H]2CC[C@H]1N2c1nnn[nH]1 (single isomer, unassigned) [45C*] | 4.00 to 4.30 | 
C[C@H]1C[C@H](NC(=O)N(C)c2ccc(OC(F)(F)F)c(OC(F)F)c2)[C@@H]2CC[C@H]1N2c1nnn[nH]1 (single isomer, unassigned) [63D*] | 4.00 to 4.30 | 
C[C@@H]1C[C@H](NC(=O)N(C)c2c(F)cc(C3CC3)cc2F)[C@H]2CC[C@@H]1N2c1nnn[nH]1 (single isomer, unassigned) [60B*] | < 4.00 | 
C[C@H]1C[C@@H](NC(=O)N(C)c2ccc(C(F)F)c(F)c2)[C@@H]2CC[C@H]1N2c1nnn[nH]1 (single isomer, unassigned) [53C*] | < 4.00 | 
C[C@@H]1C[C@H](NC(=O)N(C)c2ccc(OC(F)F)cc2)[C@H]2CC[C@@H]1N2c1nnn[nH]1 (single isomer, unassigned) [42B*] | 4.30 to 5.00 | 
C[C@H]1C[C@@H](NC(=O)N(C)c2ccc(OC(F)F)c(OC(F)F)c2)[C@@H]2CC[C@H]1N2c1nnn[nH]1 (single isomer, unassigned) [64C*] | < 4.00 | 
